Our source for the IC50 and Activity values is ChEMBL document CHEMBL3632622, “Synthesis and biological evaluation of novel N-phenyl ureidobenzenesulfonate derivatives as potential anticancer agents. Part 2. Modulation of the ring B” (Eur J Med Chem, 2015).

In general, IC50 refers to the concentration that gives 50% inhibition.

Experiment [1] deals with HT-29. The experiment in a line: Antiproliferative activity against human HT-29 cells assessed as growth inhibition incubated for 48 hrs by sulforhodamine B assay. It counts as functional, cell-based. The note with it: HT-29, 48 h.
The test system of experiment [2] is M21. The experiment in a line: Cell cycle arrest in human M21 cells assessed as accumulation at G2/M phase at 1.7 uM after 24 hrs by DAPI staining-based flow cytometry (reference value: 16%). It counts as functional. In general terms: A flow cytometer gives signals particle by particle.
A short description of experiment [3]: Antiproliferative activity against human HT1080 cells assessed as growth inhibition incubated for 48 hrs by sulforhodamine B assay. It counts as functional, cell-based, HT-1080. The conditions noted are these: Homo sapiens, HT-1080, 48 h; read-out: IC50. In general terms: Sulforhodamine B stains cellular protein and so reports cell mass.
Experiment [4] deals with M21. The experiment in a line: Cell cycle arrest in human M21 cells assessed as accumulation at subG1 phase at 1.7 uM after 24 hrs by DAPI staining-based flow cytometry (reference value: 1.5%). It counts as functional.
Experiment [5] deals with M21. The experiment in a line: Antiproliferative activity against human M21 cells assessed as growth inhibition incubated for 48 hrs by sulforhodamine B assay. It counts as functional, cell-based. The note with it: M21, 48 h.
Experiment [6] deals with M21. The experiment in a line: Cell cycle arrest in human M21 cells assessed as accumulation at S phase at 1.7 uM after 24 hrs by DAPI staining-based flow cytometry (reference value: 17.4%). It counts as functional.
In experiment [7] the test system is MCF7. The experiment in a line: Antiproliferative activity against human MCF7 cells assessed as growth inhibition incubated for 48 hrs by sulforhodamine B assay. It counts as functional, cell-based. The note with it: MCF7, 48 h.
The subject of experiment [8] is M21. The experiment can be described thus: Cell cycle arrest in human M21 cells assessed as accumulation at G0/G1 phase at 1.7 uM after 24 hrs by DAPI staining-based flow cytometry (reference value: 65.1%). It counts as functional.
Experiment [9] has as its system M21. The experiment can be described thus: Cell cycle arrest in human M21 cells assessed as accumulation at S phase at 43 uM after 24 hrs by DAPI staining-based flow cytometry (reference value: 17.4%). It counts as functional.
Experiment [10] deals with M21. The experiment can be described thus: Cell cycle arrest in human M21 cells assessed as accumulation at G0/G1 phase at 43 uM after 24 hrs by DAPI staining-based flow cytometry (reference value: 65.1%). It counts as functional.
Experiment [11] relates to M21. The experiment in a line: Cell cycle arrest in human M21 cells assessed as accumulation at G2/M phase at 43 uM after 24 hrs by DAPI staining-based flow cytometry (reference value: 16%). It counts as functional.
Experiment [12] has as its system M21. The experiment can be described thus: Cell cycle arrest in human M21 cells assessed as accumulation at subG1 phase at 43 uM after 24 hrs by DAPI staining-based flow cytometry (reference value: 1.5%). It counts as functional.
Experiment [13] concerns M21. The experiment in a line: Cell cycle arrest in human M21 cells assessed as accumulation at subG1 phase at 42 uM after 24 hrs by DAPI staining-based flow cytometry (reference value: 1.5%). It counts as functional.
Experiment [14] deals with M21. The experiment can be described thus: Cell cycle arrest in human M21 cells assessed as accumulation at G0/G1 phase at 42 uM after 24 hrs by DAPI staining-based flow cytometry (reference value: 65.1%). It counts as functional.
Experiment [15] has as its system M21. The experiment can be described thus: Cell cycle arrest in human M21 cells assessed as accumulation at G2/M phase at 42 uM after 24 hrs by DAPI staining-based flow cytometry (reference value: 16%). It counts as functional.
Experiment [16] concerns M21. The experiment can be described thus: Cell cycle arrest in human M21 cells assessed as accumulation at S phase at 42 uM after 24 hrs by DAPI staining-based flow cytometry (reference value: 17.4%). It counts as functional.
In experiment [17] the test system is M21. The experiment in a line: Cell cycle arrest in human M21 cells assessed as accumulation at subG1 phase at 32 uM after 24 hrs by DAPI staining-based flow cytometry (reference value: 1.5%). It counts as functional.
Experiment [18] concerns M21. The experiment in a line: Cell cycle arrest in human M21 cells assessed as accumulation at G2/M phase at 32 uM after 24 hrs by DAPI staining-based flow cytometry (reference value: 16%). It counts as functional.
Experiment [19] relates to M21. The experiment can be described thus: Cell cycle arrest in human M21 cells assessed as accumulation at G0/G1 phase at 32 uM after 24 hrs by DAPI staining-based flow cytometry (reference value: 65.1%). It counts as functional.
The test system of experiment [20] is M21. The experiment can be described thus: Cell cycle arrest in human M21 cells assessed as accumulation at S phase at 32 uM after 24 hrs by DAPI staining-based flow cytometry (reference value: 17.4%). It counts as functional.
The test system of experiment [21] is M21. The experiment can be described thus: Cell cycle arrest in human M21 cells assessed as accumulation at G2/M phase at 3.8 uM after 24 hrs by DAPI staining-based flow cytometry (reference value: 16%). It counts as functional.
The subject of experiment [22] is M21. The experiment in a line: Cell cycle arrest in human M21 cells assessed as accumulation at S phase at 3.8 uM after 24 hrs by DAPI staining-based flow cytometry (reference value: 17.4%). It counts as functional.
Experiment [23] concerns M21. The experiment in a line: Cell cycle arrest in human M21 cells assessed as accumulation at G0/G1 phase at 3.8 uM after 24 hrs by DAPI staining-based flow cytometry (reference value: 65.1%). It counts as functional.
Experiment [24] deals with M21. The experiment can be described thus: Cell cycle arrest in human M21 cells assessed as accumulation at subG1 phase at 3.8 uM after 24 hrs by DAPI staining-based flow cytometry (reference value: 1.5%). It counts as functional.
Experiment [25] concerns M21. The experiment can be described thus: Cell cycle arrest in human M21 cells assessed as accumulation at G2/M phase at 7.5 uM after 24 hrs by DAPI staining-based flow cytometry (reference value: 16%). It counts as functional.
The test system of experiment [26] is M21. The experiment can be described thus: Cell cycle arrest in human M21 cells assessed as accumulation at subG1 phase at 7.5 uM after 24 hrs by DAPI staining-based flow cytometry (reference value: 1.5%). It counts as functional.
The subject of experiment [27] is M21. The experiment in a line: Cell cycle arrest in human M21 cells assessed as accumulation at G0/G1 phase at 7.5 uM after 24 hrs by DAPI staining-based flow cytometry (reference value: 65.1%). It counts as functional.
Experiment [28] deals with M21. The experiment in a line: Cell cycle arrest in human M21 cells assessed as accumulation at S phase at 7.5 uM after 24 hrs by DAPI staining-based flow cytometry (reference value: 17.4%). It counts as functional.
The test system of experiment [29] is M21. The experiment in a line: Cell cycle arrest in human M21 cells assessed as accumulation at G2/M phase at 40 uM after 24 hrs by DAPI staining-based flow cytometry (reference value: 16%). It counts as functional.
Experiment [30] deals with M21. The experiment in a line: Cell cycle arrest in human M21 cells assessed as accumulation at G0/G1 phase at 40 uM after 24 hrs by DAPI staining-based flow cytometry (reference value: 65.1%). It counts as functional.
Experiment [31] deals with M21. The experiment can be described thus: Cell cycle arrest in human M21 cells assessed as accumulation at subG1 phase at 40 uM after 24 hrs by DAPI staining-based flow cytometry (reference value: 1.5%). It counts as functional.
Experiment [32] relates to M21. The experiment in a line: Cell cycle arrest in human M21 cells assessed as accumulation at S phase at 40 uM after 24 hrs by DAPI staining-based flow cytometry (reference value: 17.4%). It counts as functional.
Experiment [33] has as its system M21. The experiment in a line: Cell cycle arrest in human M21 cells assessed as accumulation at G0/G1 phase at 49 uM after 24 hrs by DAPI staining-based flow cytometry (reference value: 65.1%). It counts as functional.
The subject of experiment [34] is M21. The experiment in a line: Cell cycle arrest in human M21 cells assessed as accumulation at subG1 phase at 49 uM after 24 hrs by DAPI staining-based flow cytometry (reference value: 1.5%). It counts as functional.
Experiment [35] relates to M21. The experiment can be described thus: Cell cycle arrest in human M21 cells assessed as accumulation at S phase at 49 uM after 24 hrs by DAPI staining-based flow cytometry (reference value: 17.4%). It counts as functional.
Experiment [36] concerns M21. The experiment in a line: Cell cycle arrest in human M21 cells assessed as accumulation at G2/M phase at 49 uM after 24 hrs by DAPI staining-based flow cytometry (reference value: 16%). It counts as functional.
For experiment [37], the system named is M21. The experiment can be described thus: Cell cycle arrest in human M21 cells assessed as accumulation at G2/M phase at 1.2 uM after 24 hrs by DAPI staining-based flow cytometry (reference value: 16%). It counts as functional.
In experiment [38] the test system is M21. The experiment in a line: Cell cycle arrest in human M21 cells assessed as accumulation at G0/G1 phase at 1.2 uM after 24 hrs by DAPI staining-based flow cytometry (reference value: 65.1%). It counts as functional.
The test system of experiment [39] is M21. The experiment can be described thus: Cell cycle arrest in human M21 cells assessed as accumulation at S phase at 1.2 uM after 24 hrs by DAPI staining-based flow cytometry (reference value: 17.4%). It counts as functional.
Experiment [40] concerns M21. The experiment can be described thus: Cell cycle arrest in human M21 cells assessed as accumulation at subG1 phase at 1.2 uM after 24 hrs by DAPI staining-based flow cytometry (reference value: 1.5%). It counts as functional.

For `COc1cc(OS(=O)(=O)c2ccc(NC(=O)NCCCl)cc2)cc(OC)c1OC`, the IC50 in experiment [1] stood at 0.5 µM; in [3], 0.64 µM; in experiment [5] it was 0.47 µM; in [7], 0.66 µM. Also, the Activity amounted to 66.1% in experiment [2], 9.3% in [4], 9% in [6] and 15.6% in [8].

For `CCCCOc1ccc(OS(=O)(=O)c2ccc(NC(=O)NCCCl)cc2)cc1`, the concentration for half-maximal inhibition (IC50) in [1] was 6.5 µM; in experiment [3] it was 3.4 µM; in [5], 7.7 µM; in [7], 7.1 µM. Moreover, the Activity in experiment [9] is 9.1%; in experiment [10], 39.7%; in experiment [11] it was 42.9%; in [12], 8.3%.

As for `O=C(NCCCl)Nc1ccc(S(=O)(=O)Oc2ccc(F)c(F)c2)cc1`, the half-inhibitory concentration (IC50) worked out at 7 µM in experiment [1], 8.1 µM in [3], 7.3 µM in experiment [5] and 8.9 µM in [7]. In addition, the Activity in [13] stood at 7.6%; in [14] it was 11.6%; in [15], 62.5%; in experiment [16] it was 18.3%.

Turning to `O=C(NCCCl)Nc1ccc(S(=O)(=O)Oc2cc(F)cc(F)c2)cc1`, the Activity came to 6.7% in [17], 75.7% in experiment [18], 7.4% in experiment [19] and 10.2% in experiment [20]. The IC50 in [1] was found to be 4.8 µM; in [3], 5.7 µM; in experiment [5] it was 5 µM; in experiment [7], 5.7 µM.

In the case of `O=C(NCCCl)Nc1ccc(S(=O)(=O)Oc2cc(Cl)cc(Cl)c2)cc1`, the Activity was 84.3% in [21], 6% in experiment [22], 2.5% in experiment [23] and 7.2% in experiment [24]. Also, the IC50 in [1] is 0.55 µM; in [3], 1.1 µM; in [5] it was 0.51 µM; in experiment [7], 1 µM.

Turning to `COc1cc(OC)cc(OS(=O)(=O)c2ccc(NC(=O)NCCCl)cc2)c1`, the IC50 in experiment [1] amounted to 1.1 µM; in experiment [3], 1.5 µM; in experiment [5], 1.1 µM; in experiment [7] it was 2 µM. Moreover, the Activity in experiment [25] came out at 74.1%; in experiment [26], 11.4%; in experiment [27] it was 9.3%; in experiment [28], 5.2%.

`O=C(NCCCl)Nc1ccc(S(=O)(=O)Oc2ccc(Br)cc2)cc1`: the half-maximal inhibitory concentration (IC50) in [1] came to 8.3 µM; in experiment [3], 9.6 µM; in experiment [5], 8.1 µM; in experiment [7] it was 9.4 µM. Further, the Activity in experiment [29] was determined as 76.1%; in experiment [30] it was 12%; in experiment [31] it was 7.5%; in experiment [32] it was 4.4%.

Take `CCOc1ccc(OS(=O)(=O)c2ccc(NC(=O)NCCCl)cc2)cc1`: the Activity in experiment [33] is listed as 13.4%; in [34], 3.5%; in [35], 8.2%; in experiment [36], 74.9%. The IC50 in experiment [1] turned out to be 7.8 µM; in [3] it was 8.3 µM; in experiment [5] it was 8.3 µM; in [7], 9.5 µM.

`O=C(NCCCl)Nc1ccc(S(=O)(=O)Oc2cc(Br)cc(Br)c2)cc1`: the Activity in experiment [37] is recorded as 83.4%; in experiment [38], 2.6%; in experiment [39] it was 6.9%; in experiment [40] it was 7.1%. Besides, the concentration for half-maximal inhibition (IC50) in experiment [1] came out at 0.3 µM; in experiment [3], 0.4 µM; in experiment [5], 0.24 µM; in [7], 0.4 µM.
